Assay results reported in patent US7138361B2, “Herbicidal heterocycles” (E. I. du Pont de Nemours and Company, priority 2000, dated 2006).

Legend:
Assay type in all cases: in vivo
[1] = system: Surinam grass (Brachiaria decumbens); assay: Test B preemergence; conditions: scale 0 to 100, 0 no effect, 100 complete control
Method in brief: (§1)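 Greenhouse test: chemicals are formulated in a surfactant-containing non-phytotoxic solvent and applied either preemergence to planted seeds or postemergence to plants 2 to 18 cm tall. Response is rated visually versus controls after 13 to 15 days, 0 meaning no effect and 100 complete control.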

[2] = system: barnyardgrass (Echinochloa crus-galli); assay: Test B preemergence; conditions: scale 0 to 100, 0 no effect, 100 complete control
Method in brief: as §1

[3] = system: cocklebur (Xanthium strumarium); assay: Test B preemergence; conditions: scale 0 to 100, 0 no effect, 100 complete control
Method in brief: as §1

corn (Zea mays) = assay: Test B preemergence; conditions: scale 0 to 100, 0 no effect, 100 complete control
Method in brief: as §1

[4] = system: crabgrass (Digitaria sanguinalis); assay: Test B preemergence; conditions: scale 0 to 100, 0 no effect, 100 complete control
Method in brief: as §1

[5] = system: giant foxtail (Setaria faberii); assay: Test B preemergence; conditions: scale 0 to 100, 0 no effect, 100 complete control
Method in brief: as §1

[6] = system: lambsquarters (Chenopodium album); assay: Test B preemergence; conditions: scale 0 to 100, 0 no effect, 100 complete control
Method in brief: as §1

[7] = system: morning glory (Ipomoea hederacea); assay: Test B preemergence; conditions: Preemergence, Rate 500 g/ha; scale 0 to 100, 0 no effect, 100 complete control
Method in brief: as §1

[8] = system: pigweed (Amaranthus retroflexus); assay: Test B preemergence; conditions: Preemergence, Rate 500 g/ha; scale 0 to 100, 0 no effect, 100 complete control
Method in brief: as §1

rice (Oryza saliva) = assay: Test B preemergence; conditions: Preemergence, Rate 500 g/ha; scale 0 to 100, 0 no effect, 100 complete control
Method in brief: as §1

[9] = system: velvetleaf (Abutilon theophrasti); assay: Test B preemergence; conditions: Preemergence, Rate 500 g/ha; scale 0 to 100, 0 no effect, 100 complete control
Method in brief: as §1

[10] = system: Surinam grass (Brachiaria decumbens); assay: Test C preemergence; conditions: for Plant response rating (0 to 100), Surinam grass: Rate 250 g/ha, visual evaluation after 12 to 14 days
Source text: (§2) Seeds of plant species selected from bermudagrass (Cynodon dactylon), Surinam grass (Brachiaria decumbens), cocklebur (Xanthium strumarium), corn (Zea mays), crabgrass (Digitaria sanguinalis), woolly cupgrass (Eriochloa villosa), giant foxtail (Setaria faberii), goosegrass (Eleusine indica), johnsongrass (Sorghum halepense), kochia (Kochia scoparia), lambsquarters (Chenopodium album), morningglory (Ipomoea hederacea), yellow nutsedge (Cyperus esculentus), pigweed (Amaranthus retroflexus), common ragweed (Ambrosia elatior), soybean (Glycine max) and velvetleaf (Abutilon theophrasti) were planted and treated preemergence with test chemicals formulated in a non-phytotoxic solvent mixture which included a surfactant.
(§3) At the same time, plants selected from these crop and weed species and also winter barley (Hordeum vulgare), blackgrass (Alopecurus myosuroides), canary grass (Phalaris minor), chickweed (Stellaria media), downy brome (Bromus tectorum), green foxtail (Setaria viridis), Italian ryegrass (Lolium multiflorum), wheat (Triticum aestivum), wild oat (Avena fatua) and windgrass (Apera spica-venti) were treated with postemergence applications of some of the test chemicals formulated in the same manner. Plants ranged in height from 2 to 18 cm (1- to 4-leaf stage) for postemergence treatments. Plant species in the flooded paddy test consisted of rice (Oryza saliva), smallflower flatsedge (Cyperus difformis), duck salad (Heteranthera limosa) and barnyardgrass (Echinochloa crus-galli) grown to the 2-leaf stage for testing. Treated plants and controls were maintained in a greenhouse for 12 to 14 days, after which time all species were compared to controls and visually evaluated. Plant response ratings, summarized in Table C, are based on a scale of 0 to 100 where 0 is no effect and 100 is complete control. A dash (-) response means no test result.

[11] = system: bermudagrass (Cynodon dactylon); assay: Test C preemergence; conditions: for Plant response rating (0 to 100 where 0 is no effect and 100 is complete control), Bermudagrass: Rate 250 g/ha, visual evaluation after 12 to 14 days
Source text: as §2, §3

[12] = system: cocklebur (Xanthium strumarium); assay: Test C preemergence; conditions: for Plant response rating (0 to 100), Cocklebur: Rate 250 g/ha, visual evaluation after 12 to 14 days
Source text: as §2, §3

[13] = system: crabgrass (Digitaria sanguinalis); assay: Test C preemergence; conditions: for Plant response rating (0 to 100), Crabgrass: Rate 250 g/ha, visual evaluation after 12 to 14 days
Source text: as §2, §3

[14] = system: giant foxtail (Setaria faberii); assay: Test C preemergence; conditions: for Plant response rating (0 to 100), Foxtail, Giant: Rate 250 g/ha, visual evaluation after 12 to 14 days
Source text: as §2, §3

[15] = system: pigweed (Amaranthus retroflexus); assay: Test C preemergence; conditions: for Plant response rating (0 to 100), Pigweed: Rate 250 g/ha, visual evaluation after 12 to 14 days
Source text: as §2, §3

soybean (Glycine max) = assay: Test C preemergence; conditions: for Plant response rating (0 to 100), Soybean: Rate 250 g/ha, visual evaluation after 12 to 14 days
Source text: as §2, §3

[16] = system: woolly cupgrass (Eriochloa villosa); assay: Test C preemergence; conditions: for Plant response rating (0 to 100), Cupgrass, Woolly: Rate 250 g/ha, visual evaluation after 12 to 14 days
Source text: as §2, §3

Nightshade = assay: Test C preemergence; conditions: Rate 250 g/ha, visual evaluation after 12 to 14 days
Sunflower = assay: Test C preemergence; conditions: Rate 125 g/ha, scale 0 to 100, 0 no effect, 100 complete control
[17] = Preemergence, Rate 500 g/ha, scale 0 to 100
[18] = Rate 62 g/ha, scale 0 to 100, 0 no effect, 100 complete control
[19] = preemergence, Rate 125 g/ha, scale 0 to 100, 0 no effect, 100 complete control

CC(C)(C)c1ccn(C2SCN(c3cccc(OC(F)(F)F)c3)C2=O)n1 (centres unmarked) [Compound 30]
Plant response rating, Surinam grass ([1]; Preemergence, Rate 500 g/ha): 60 | Plant response rating, Surinam grass ([1]; preemergence, Rate 125 g/ha): 40 | Plant response rating, Barnyardgrass ([2]; Preemergence, Rate 500 g/ha): 100 | Plant response rating, Barnyardgrass ([2]; preemergence, Rate 125 g/ha): 40 | Plant response rating, Cocklebur ([3]; Preemergence, Rate 500 g/ha): 90 | Plant response rating, Cocklebur ([3]; preemergence, Rate 125 g/ha): 0 | Plant response rating, Corn (corn (Zea mays); Preemergence, Rate 500 g/ha): 0 | Plant response rating, Corn (corn (Zea mays); preemergence, Rate 125 g/ha): 0 | Plant response rating, Crabgrass ([4]; Preemergence, Rate 500 g/ha): 100 | Plant response rating, Crabgrass ([4]; preemergence, Rate 125 g/ha): 20 | Plant response rating, Foxtail, Giant ([5]; Preemergence, Rate 500 g/ha): 100 | Plant response rating, Foxtail, Giant ([5]; preemergence, Rate 125 g/ha): 70 | Plant response rating, Lambsquarters ([6]; Preemergence, Rate 500 g/ha): 100 | Plant response rating, Lambsquarters ([6]; preemergence, Rate 125 g/ha): 100 | Plant response rating, Morningglory [7]: 90 | Plant response rating, Pigweed [8]: 100 | Plant response rating, Rice (rice (Oryza saliva)): 0 | Plant response rating, Velvetleaf [9]: 40 | Plant response rating, Surinam grass [10, 17]: 60 | Plant response rating, Surinam grass [10, 18]: 20 | Plant response rating (0 to 100), Surinam grass ([10]; preemergence): 40 | Plant response rating, Surinam grass [10, 19]: 40 | Plant response rating, Bermudagrass [11, 17]: 100 | Plant response rating, Bermudagrass [11, 18]: 100 | Plant response rating (0 to 100 where 0 is no effect and 100 is complete control), Bermudagrass ([11]; preemergence): 100 | Plant response rating, Bermudagrass [11, 19]: 100 | Plant response rating, Cocklebur [12, 17]: 80 | Plant response rating, Cocklebur [12, 18]: 0 | Plant response rating (0 to 100), Cocklebur ([12]; preemergence): 0 | Plant response rating, Cocklebur [12, 19]: 0 | Plant response rating, Crabgrass [13, 17]: 100 | Plant response rating, Crabgrass [13, 18]: 100 | Plant response rating (0 to 100), Crabgrass ([13]; preemergence): 100 | Plant response rating, Crabgrass [13, 19]: 100 | Plant response rating, Foxtail, Giant [14, 17]: 100 | Plant response rating, Foxtail, Giant [14, 18]: 80 | Plant response rating (0 to 100), Foxtail, Giant ([14]; preemergence): 90 | Plant response rating, Foxtail, Giant [14, 19]: 60 | Plant response rating, Pigweed [15, 17]: 100 | Plant response rating, Pigweed [15, 18]: 90 | Plant response rating (0 to 100), Pigweed ([15]; preemergence): 90 | Plant response rating, Pigweed [15, 19]: 50 | Plant response rating, Soybean (soybean (Glycine max); [17]): 70 | Plant response rating, Soybean (soybean (Glycine max); [18]): 30 | Plant response rating (0 to 100), Soybean (soybean (Glycine max); preemergence): 70 | Plant response rating, Soybean (soybean (Glycine max); [19]): 70 | Plant response rating, Cupgrass, Woolly [16, 17]: 100 | Plant response rating, Cupgrass, Woolly [16, 18]: 70 | Plant response rating (0 to 100), Cupgrass, Woolly ([16]; preemergence): 90 | Plant response rating, Cupgrass, Woolly [16, 19]: 70 | Plant response rating (0 to 100), Nightshade (Nightshade): 100 | Plant response rating, Sunflower (Sunflower): 80

CC(C)c1ccn(C2SCN(c3cccc(OC(F)(F)F)c3)C2=O)n1 (centres unmarked) [Compound 31]
Plant response rating, Surinam grass ([1]; Preemergence, Rate 500 g/ha): 70 | Plant response rating, Surinam grass ([1]; preemergence, Rate 125 g/ha): 30 | Plant response rating, Barnyardgrass ([2]; Preemergence, Rate 500 g/ha): 100 | Plant response rating, Barnyardgrass ([2]; preemergence, Rate 125 g/ha): 100 | Plant response rating, Cocklebur ([3]; Preemergence, Rate 500 g/ha): 0 | Plant response rating, Cocklebur ([3]; preemergence, Rate 125 g/ha): 0 | Plant response rating, Corn (corn (Zea mays); Preemergence, Rate 500 g/ha): 0 | Plant response rating, Corn (corn (Zea mays); preemergence, Rate 125 g/ha): 0 | Plant response rating, Crabgrass ([4]; Preemergence, Rate 500 g/ha): 100 | Plant response rating, Crabgrass ([4]; preemergence, Rate 125 g/ha): 100 | Plant response rating, Foxtail, Giant ([5]; Preemergence, Rate 500 g/ha): 90 | Plant response rating, Foxtail, Giant ([5]; preemergence, Rate 125 g/ha): 30 | Plant response rating, Lambsquarters ([6]; Preemergence, Rate 500 g/ha): 100 | Plant response rating, Lambsquarters ([6]; preemergence, Rate 125 g/ha): 100 | Plant response rating, Morningglory [7]: 0 | Plant response rating, Pigweed [8]: 100 | Plant response rating, Rice (rice (Oryza saliva)): 0 | Plant response rating, Velvetleaf [9]: 0 | Plant response rating, Surinam grass [10, 17]: 70 | Plant response rating, Surinam grass [10, 18]: 50 | Plant response rating (0 to 100), Surinam grass ([10]; preemergence): 60 | Plant response rating, Surinam grass [10, 19]: 50 | Plant response rating, Bermudagrass [11, 17]: 100 | Plant response rating, Bermudagrass [11, 18]: 90 | Plant response rating (0 to 100 where 0 is no effect and 100 is complete control), Bermudagrass ([11]; preemergence): 100 | Plant response rating, Bermudagrass [11, 19]: 100 | Plant response rating, Cocklebur [12, 17]: 30 | Plant response rating, Cocklebur [12, 18]: 0 | Plant response rating (0 to 100), Cocklebur ([12]; preemergence): 30 | Plant response rating, Cocklebur [12, 19]: 0 | Plant response rating, Crabgrass [13, 17]: 100 | Plant response rating, Crabgrass [13, 18]: 100 | Plant response rating (0 to 100), Crabgrass ([13]; preemergence): 100 | Plant response rating, Crabgrass [13, 19]: 100 | Plant response rating, Foxtail, Giant [14, 17]: 100 | Plant response rating, Foxtail, Giant [14, 18]: 40 | Plant response rating (0 to 100), Foxtail, Giant ([14]; preemergence): 60 | Plant response rating, Foxtail, Giant [14, 19]: 50 | Plant response rating, Pigweed [15, 17]: 90 | Plant response rating, Pigweed [15, 18]: 30 | Plant response rating (0 to 100), Pigweed ([15]; preemergence): 80 | Plant response rating, Pigweed [15, 19]: 100 | Plant response rating, Soybean (soybean (Glycine max); [17]): 0 | Plant response rating, Soybean (soybean (Glycine max); [18]): 0 | Plant response rating (0 to 100), Soybean (soybean (Glycine max); preemergence): 0 | Plant response rating, Soybean (soybean (Glycine max); [19]): 0 | Plant response rating, Cupgrass, Woolly [16, 17]: 100 | Plant response rating, Cupgrass, Woolly [16, 18]: 50 | Plant response rating (0 to 100), Cupgrass, Woolly ([16]; preemergence): 90 | Plant response rating, Cupgrass, Woolly [16, 19]: 60 | Plant response rating (0 to 100), Nightshade (Nightshade): 100 | Plant response rating, Sunflower (Sunflower): 30
